Source: paper PMC7777204, “Locking mixed-lineage kinase domain-like protein in its auto-inhibited state prevents necroptosis” (Proceedings of the National Academy of Sciences of the …, 2020)

Target: T1, MLKL executioner domain (Homo sapiens, UniProt Q8NB16)
T1 construct: 80 µM MLKL N-terminal executioner domain (residues 1 to 154) was used; GST (thrombin cleavage site) (cleaved yes)
T1 sequence (Q8NB16 1-154): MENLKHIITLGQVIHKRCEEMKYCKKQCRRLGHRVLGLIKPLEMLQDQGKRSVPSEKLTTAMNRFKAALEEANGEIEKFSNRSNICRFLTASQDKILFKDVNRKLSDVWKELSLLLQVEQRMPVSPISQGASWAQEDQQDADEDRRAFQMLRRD
Assay: Real-time NMR of MLKL oligomerization
Assay type: biochemical
Conditions: after 48 h, 50 µM IP6, 12 mM NM, 500 µM Cpd 3, 300 µM MLKL, 298 K
Method: While MLKL was stable in the presence of either 500 µM IP6 or 12 mM NM (SI Appendix, Fig. S13), dispersed peaks were disappearing over time in the presence of the combination of the two. Monitoring this decay by real-time NMR, a series of ^1H,^15N-correlation spectra were recorded in the presence of 12 mM NM and 50 µM IP6. The latter concentration was reduced to slow down the process to enable real-time NMR detection, because at 500 µM IP6 concentration, 86% activation could be observed in the functional assay in the ^1H,^15N-correlation spectrum measured directly after sample preparation. The loss of peak intensity can be fitted with a biexponential decay with a fast time constant (Tf) of 0.35 ± 0.07 h and a slow time constant (Ts) of 10.0 ± 1.0 h. […] In addition to the known peaks reporting on the active state with α-helix 6 being detached (Ala141 N,H and Trp133 Nε1,Hε1), peaks in the random coil region of the spectrum appeared (Fig. 4A). […] Secondary chemical shifts confirmed that α-helix 6 becomes largely unfolded and has, according to ^15N-relaxation data, increased mobility (τC = 10 ns) and reduced rigidity (heteronuclear NOE around zero) in the activated state (SI Appendix, Fig. S10).
After 48 h, these signals decayed only to ∼70% intensity. Cross-peaks reporting on the unfolded, detached α-helix 6 likewise appeared more slowly in the presence of Cpd 3 (Fig. 4 B–D). […]

Remaining intensity of dispersed signals: ~70%
Structure (SMILES): Cn1c(=O)c2c(nc(S(C)(=O)=O)n2C)n(CC#Cc2cccc(O)c2)c1=O [Cpd 3]
